Measured values taken from patent US20240246937A1 (MERCK SHARP & DOHME LLC, priority 2021, published 2024).

Target: recombinant IL4I1 (Homo sapiens (Human), UniProt Q96RQ9)
Experiment: IL4I1 Enzymatic Assay (Amplex Red/HRP coupled fluorescence detection of H2O2)
Type: biochemical
Conditions: 240 min; recombinant IL4I1, four-hour pre-incubation with compound
Method in brief: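 Recombinant human IL4I1 (1 nM final) pre-incubated 4 h with compound at ambient temperature in 50 mM Hepes pH 7.0, 0.005% Tween20. Started with 1 mM each Phe/Tyr/Trp plus Amplex Red/HRP; H2O2-derived resorufin fluorescence read after 120 min; EC50 from ten-point 1:3 titration, four-parameter fit.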

Sequence of recombinant IL4I1 (Q96RQ9 22-567): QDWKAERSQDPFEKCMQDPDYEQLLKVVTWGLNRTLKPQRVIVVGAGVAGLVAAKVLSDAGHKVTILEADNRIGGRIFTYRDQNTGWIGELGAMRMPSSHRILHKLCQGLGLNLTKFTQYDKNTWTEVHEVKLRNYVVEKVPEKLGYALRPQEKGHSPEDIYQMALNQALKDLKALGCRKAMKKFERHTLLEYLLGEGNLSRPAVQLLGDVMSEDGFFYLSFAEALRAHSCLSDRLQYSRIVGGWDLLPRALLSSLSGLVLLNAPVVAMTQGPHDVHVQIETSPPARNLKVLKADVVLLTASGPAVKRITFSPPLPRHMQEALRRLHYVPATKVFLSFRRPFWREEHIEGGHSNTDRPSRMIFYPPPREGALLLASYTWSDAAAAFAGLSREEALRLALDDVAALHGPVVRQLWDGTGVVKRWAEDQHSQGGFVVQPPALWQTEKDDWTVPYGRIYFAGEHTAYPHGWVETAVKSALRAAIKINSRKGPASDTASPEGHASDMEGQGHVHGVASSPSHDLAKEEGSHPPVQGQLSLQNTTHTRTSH

## O=c1c(=O)n(C23CC(C2)C3)ccn1Cc1cn(-c2cccnc2)nn1 [Example 428, 1-(bicyclo[1.1.1]pentan-1-yl)-4-((1-(pyridin-3-yl)-1H-1,2,3-triazol-4-yl)methyl)-1,4-dihydropyrazine-2,3-dione]
  EC50: 21 nM

## O=C1C(=O)N([C@H]2C[C@@H](c3ccccc3)C2)CCN1Cc1ccc(-n2ccnn2)nn1 [Example 327, 1-((6-(1H-1,2,3-triazol-1-yl)pyridazin-3-yl)methyl)-4-((cis)-3-phenylcyclobutyl)piperazine-2,3-dione]
  EC50: 16 nM

## O=C1C(=O)N([C@H]2C[C@H]3C[C@H]3C2)CCN1Cc1nnc(-c2ccccc2F)s1 [Example 44, 1-((cis)-bicyclo[3.1.0]hexan-3-yl)-4-((5-(2-fluorophenyl)-1,3,4-thiadiazol-2-yl)methyl)piperazine-2,3-dione]
  EC50: 7 nM

## O=c1c(=O)n(C2CCC2)ccn1Cc1cc(-c2ccccn2)on1 [Example 373, 1-cyclobutyl-4-((5-(pyridin-2-yl)isoxazol-3-yl)methyl)-1,4-dihydropyrazine-2,3-dione]
  EC50: 8 nM

## CC(c1ccc(-c2ccccc2)nc1)N1CCN(C2CCCC2)C(=O)C1=O (single isomer, unassigned) [Example 99, (R or S)-1-cyclopentyl-4-(1-(6-phenylpyridin-3-yl)ethyl)piperazine-2,3-dione]
  EC50: 12 nM

## N#CC1(n2ccn(Cc3ccc(-n4nccn4)nc3)c(=O)c2=O)CC1 [Example 391, 1-(4-((6-(2H-1,2,3-triazol-2-yl)pyridin-3-yl)methyl)-2,3-dioxo-3,4-dihydropyrazin-1(2H)-yl)cyclopropane-1-carbonitrile]
  EC50: 170 nM

## O=C1C(=O)N(C2(CF)CC2)CCN1Cc1nnc(-c2ccccc2)s1 [Example 305, 1-(1-(fluoromethyl)cyclopropyl)-4-((5-phenyl-1,3,4-thiadiazol-2-yl)methyl)piperazine-2,3-dione]
  EC50: 32 nM

## O=c1c(=O)n(C2CCC2)ccn1Cc1cc(-c2ccccc2F)no1 [Example 152, 1-cyclobutyl-4-((3-(2-fluorophenyl)isoxazol-5-yl)methyl)-1,4-dihydropyrazine-2,3-dione]
  EC50: 2 nM

## N#CC1(n2ccn(Cc3cc(-c4ccccn4)on3)c(=O)c2=O)CC1 [Example 207, 1-(2,3-dioxo-4-((5-(pyridin-2-yl)isoxazol-3-yl)methyl)-3,4-dihydropyrazin-1(2H)-yl)cyclopropane-1-carbonitrile]
  EC50: 43 nM

## O=C1C(=O)N(CC2CC2)CCN1Cc1ncc(-c2ccccc2)cn1 [Example 280, 1-(cyclopropylmethyl)-4-((5-phenylpyrimidin-2-yl)methyl)piperazine-2,3-dione]
  EC50: 38 nM

## O=C1C(=O)N(C2CCCC2)CCN1Cc1ccc(N2CCCCC2)nn1 [Example 316, 1-cyclopentyl-4-((6-(piperidin-1-yl)pyridazin-3-yl)methyl)piperazine-2,3-dione]
  EC50: 32 nM

## O=C1C(=O)N(C2CCC2)CCN1Cc1nnc(-c2ccccn2)s1 [Example 369, 1-cyclobutyl-4-((5-(pyridin-2-yl)-1,3,4-thiadiazol-2-yl)methyl)piperazine-2,3-dione]
  EC50: 32 nM

## N#CC1(n2ccn(Cc3ccc(-n4cccn4)cn3)c(=O)c2=O)CC1 [Example 386, 1-(4-((5-(1H-pyrazol-1-yl)pyridin-2-yl)methyl)-2,3-dioxo-3,4-dihydropyrazin-1(2H)-yl)cyclopropane-1-carbonitrile]
  EC50: 225 nM

## O=c1c(=O)n(C2CCCC2)ccn1Cc1nnc(-c2ccc(F)cc2)s1 [Example 35, 1-cyclopentyl-4-((5-(4-fluorophenyl)-1,3,4-thiadiazol-2-yl)methyl)-1,4-dihydropyrazine-2,3-dione]
  EC50: 3 nM

## O=c1c(=O)n(C23CC(C2)C3)ccn1Cc1cnc(-c2ccccc2)nc1 [Example 111, 1-(bicyclo[1.1.1]pentan-1-yl)-4-((2-phenylpyrimidin-5-yl)methyl)-1,4-dihydropyrazine-2,3-dione]
  EC50: 8 nM

## O=c1c(=O)n(C2CCC2)ccn1Cc1cc(-c2ccccn2)no1 [Example 161, 1-cyclobutyl-4-((3-(pyridin-2-yl)isoxazol-5-yl)methyl)-1,4-dihydropyrazine-2,3-dione]
  EC50: 5 nM

## O=C1C(=O)N(C23CC(F)(C2)C3)CCN1Cc1ccc(-c2cccnc2)nn1 [Example 241, 1-(3-fluorobicyclo[1.1.1]pentan-1-yl)-4-((6-(pyridin-3-yl)pyridazin-3-yl)methyl)piperazine-2,3-dione]
  EC50: 40 nM

## O=C1C(=O)N(C2CC(c3ccccc3)C2)CCN1Cc1ccc(-c2ccccc2)nc1 (centres unmarked) [Example 142, 1-(3-phenylcyclobutyl)-4-((6-phenylpyridin-3-yl)methyl)piperazine-2,3-dione]
  EC50: 3 nM

## O=c1c(=O)n([C@H]2C[C@H]3C[C@H]3C2)ccn1Cc1nnc(-c2ccccc2)s1 [Example 39, 1-((cis)-bicyclo[3.1.0]hexan-3-yl)-4-((5-phenyl-1,3,4-thiadiazol-2-yl)methyl)-1,4-dihydropyrazine-2,3-dione]
  EC50: 3 nM

## O=C1C(=O)N(C23CC(F)(C2)C3)CCN1Cc1ccc(-n2ccnn2)nc1 [Example 236, 1-((6-(1H-1,2,3-triazol-1-yl)pyridin-3-yl)methyl)-4-(3-fluorobicyclo[1.1.1]pentan-1-yl)piperazine-2,3-dione]
  EC50: 533 nM

## CC12CC(N3CCN(Cc4nnc(-c5ccccc5)s4)C(=O)C3=O)(CO1)C2 [Example 296, 1-(1-methyl-2-oxabicyclo[2.1.1]hexan-4-yl)-4-((5-phenyl-1,3,4-thiadiazol-2-yl)methyl)piperazine-2,3-dione]
  EC50: 63 nM

## O=C1C(=O)N(C2CC[C@H](O)C2)CCN1Cc1nnc(-c2ccccc2)s1 (single isomer, unassigned) [Example 438, (R,S or S,R)-1-(3-hydroxycyclopentyl)-4-((5-phenyl-1,3,4-thiadiazol-2-yl)methyl)piperazine-2,3-dione]
  EC50: 40 nM

## O=C1C(=O)N(C2CCC2)CCN1Cc1cnc(-c2ccccc2F)s1 [Example 78, 1-cyclobutyl-4-((2-(2-fluorophenyl)thiazol-5-yl)methyl)piperazine-2,3-dione]
  EC50: 6 nM

## CC1(n2ccn(Cc3ccc(-c4cncs4)nn3)c(=O)c2=O)CC1 [Example 94, 1-(1-methylcyclopropyl)-4-((6-(thiazol-5-yl)pyridazin-3-yl)methyl)-1,4-dihydropyrazine-2,3-dione]
  EC50: 35 nM

## O=C1C(=O)N(C23CC(F)(C2)C3)CCN1Cc1ccc(-c2cncs2)nn1 [Example 243, 1-(3-fluorobicyclo[1.1.1]pentan-1-yl)-4-((6-(thiazol-5-yl)pyridazin-3-yl)methyl)piperazine-2,3-dione]
  EC50: 30 nM

## CC1(n2ccn(Cc3nnc(-c4ccc(F)cc4)s3)c(=O)c2=O)CCC1 [Example 83, 1-((5-(4-fluorophenyl)-1,3,4-thiadiazol-2-yl)methyl)-4-(1-methylcyclobutyl)-1,4-dihydropyrazine-2,3-dione]
  EC50: 8 nM

## O=c1c(=O)n(C23CC(C2)C3)ccn1Cc1ccc(-c2cccc(F)c2)nn1 [Example 64, 1-(bicyclo[1.1.1]pentan-1-yl)-4-((6-(3-fluorophenyl)pyridazin-3-yl)methyl)-1,4-dihydropyrazine-2,3-dione]
  EC50: 4 nM

## O=C1C(=O)N(C2CCCC2)CCN1Cc1cc(-c2ccccc2F)no1 [Example 154, 1-cyclopentyl-4-((3-(2-fluorophenyl)isoxazol-5-yl)methyl)piperazine-2,3-dione]
  EC50: 3 nM

## O=c1c(=O)n(C23CC(F)(C2)C3)ccn1Cc1cc(-c2ccccn2)no1 [Example 203, 1-(3-fluorobicyclo[1.1.1]pentan-1-yl)-4-((3-(pyridin-2-yl)isoxazol-5-yl)methyl)-1,4-dihydropyrazine-2,3-dione]
  EC50: 19 nM

## O=C1C(=O)N(C2CCC2)CCN1Cc1ccc(-n2nccn2)nc1 [Example 113, 1-((6-(2H-1,2,3-triazol-2-yl)pyridin-3-yl)methyl)-4-cyclobutylpiperazine-2,3-dione]
  EC50: 15 nM

## N#CC1(n2ccn(Cc3ccc(-c4ccccc4F)nn3)c(=O)c2=O)CC1 [Example 198, 1-(4-((6-(2-fluorophenyl)pyridazin-3-yl)methyl)-2,3-dioxo-3,4-dihydropyrazin-1(2H)-yl)cyclopropane-1-carbonitrile]
  EC50: 76 nM

## O=C1C(=O)N(C2CCCC2)CCN1Cc1ccc(-n2nccn2)cc1 [Example 140, 1-(4-(2H-1,2,3-triazol-2-yl)benzyl)-4-cyclopentylpiperazine-2,3-dione]
  EC50: 36 nM

## O=C1C(=O)N(C2CCCC2)CCN1Cc1cnc(-c2ccccc2F)cn1 [Example 46, 1-cyclopentyl-4-((5-(2-fluorophenyl)pyrazin-2-yl)methyl)piperazine-2,3-dione]
  EC50: 13 nM

## CC1(n2ccn(Cc3ccc(-c4ccccn4)cn3)c(=O)c2=O)CC1 [Example 88, 1-([2,3′-bipyridin]-6′-ylmethyl)-4-(1-methylcyclopropyl)-1,4-dihydropyrazine-2,3-dione]
  EC50: 69 nM

## O=C1C(=O)N([C@H]2C[C@@H](c3ccccc3)C2)CCN1Cc1ccc(-n2nccn2)nn1 [Example 326, 1-((6-(2H-1,2,3-triazol-2-yl)pyridazin-3-yl)methyl)-4-((cis)-3-phenylcyclobutyl)piperazine-2,3-dione]
  EC50: 20 nM

## O=C1C(=O)N(C2CCC2)CCN1Cc1cnc(-c2ccccc2)cn1 [Example 118, 1-cyclobutyl-4-((5-phenylpyrazin-2-yl)methyl)piperazine-2,3-dione]
  EC50: 7 nM

## O=c1c(=O)n(C2CCC2)ccn1Cc1ccc(-c2ccccc2)nn1 [Example 137, 1-cyclobutyl-4-((6-phenylpyridazin-3-yl)methyl)-1,4-dihydropyrazine-2,3-dione]
  EC50: 6 nM

## O=C1C(=O)N(C23CC(F)(C2)C3)CCN1Cc1cc(-c2ccccn2)on1 [Example 252, 1-(3-fluorobicyclo[1.1.1]pentan-1-yl)-4-((5-(pyridin-2-yl)isoxazol-3-yl)methyl)piperazine-2,3-dione]
  EC50: 38 nM
